Measured values taken from ChEMBL document CHEMBL1201862, “PubChem BioAssay data set” (2004).
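Compound exposure: 48 hours, 5 concentrations, 96-well plates. Here, GI50 denotes the concentration required for 50% inhibition of growth.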 Calls of active or inactive are those of the source. Rule as the data show it: active = GI50 up to about 1.1 µM and inactive = higher.

Tests used:
Test in all cases: DTP human tumour cell line panel, 48 h
KM12 = test system: KM12
OVCAR-3 = test system: OVCAR-3
OVCAR-5 = test system: OVCAR-5
SF-295 = test system: SF-295
EKVX = test system: EKVX
SNB-75 = test system: SNB-75
COLO 205 = test system: COLO 205
HCT-116 = test system: HCT-116
HOP-92 = test system: HOP-92
SR = test system: SR
T47D = test system: T47D
K562 = test system: K562
OVCAR-8 = test system: OVCAR-8
IGROV-1 = test system: IGROV-1
SW-620 = test system: SW-620
786-0 = test system: 786-0
UO-31 = test system: UO-31
SK-OV-3 = test system: SK-OV-3
HT-29 = test system: HT-29
SF-268 = test system: SF-268

Measured: GI50

CN1CCN(Cc2nc3cccc4c3c([n+]2[O-])-c2ccccc2-4)CC1
inactive: KM12 27.4 µM | OVCAR-3 37.8 µM | OVCAR-5 > 34.2 µM | SF-295 41 µM | EKVX 31.4 µM | SNB-75 33 µM | COLO 205 16.9 µM | HCT-116 4.41 µM | HOP-92 36 µM | SR 4.19 µM | T47D 29.3 µM | K562 29.6 µM | OVCAR-8 12.9 µM | IGROV-1 32.5 µM | SW-620 22.8 µM | 786-0 14.4 µM | UO-31 20 µM | SK-OV-3 59.3 µM | HT-29 12.4 µM | SF-268 17.9 µM
